{"source": "paper doi:10.1101/2025.03.14.643404", "about": "“A Bivalent Molecular Glue Linking Lysine Acetyltransferases to Oncogene-induced Cell Death” (bioRxiv, 2025)", "key": {"SUDHL5 cells": {"system": "SUDHL5 cells", "assay": "Annexin V staining of SUDHL5", "type": "cell-based, human", "description": "25,000 cells were plated in 200 μL of media in 96 well U-bottom plates and treated with compound. […] Centrifugation and washing was repeated once more. Cells were then resuspended in 50 μL cold binding buffer (10 mM HEPES pH 7.4, 140 mM NaCl, 2.5 mM CaCl2) and 2.5 μL FITC-Annexin-V (Biolegend 640922). A no-stain control was also included to draw gates. The plate was allowed to incubate for 15 minutes at room temperature, at which point 100 μL of 2.5% FBS in PBS was added to each well. The plate was gently agitated through shaking, and samples were analyzed by flow cytometry on a BD Accuri. At least 50k events were collected per sample."}, "SUDHL5": {"system": "SUDHL5", "assay": "Cell viability, 7 days compound treatment (Cell Titer-Glo), SUDHL5", "type": "cell-based", "conditions": "Homo sapiens, SU-DHL-5, 168 h; SUDHL5, 7 days; read-out: IC50 of antiproliferation", "description": "Fifteen thousand cells were seeded in 100 μl of media per well of a U-bottom 96-well plate and treated with digitally dispensed drugs (Tecan D300e) for the indicated times and doses. After 96 hours, plates were centrifuged for 750 rpm for 3 minutes, and old media was exchanged for 100 μl of fresh media. Drug treatment was then repeated at the indicated doses. 72 hours following media change, cells were transferred to 96 well flat-bottom opaque plates. Viability was measured by adding 25 μL Cell Titer-Glo reagent (Promega G7570) to each well and luminescence was measured (BMG Labtech Pherastar FS). The background luminescence was subtracted, and the signal was normalized to DMSO-treated cells. IC50 measurements on cell lines were calculated using at least three biological replicates by separate cell passages. Fit of dose–response curves to data and statistical analysis was performed using GraphPad PRISM using the four-parameter log(inhibitor) vs response function."}}, "data": [{"smiles": "CNC(=O)COc1cc2cc(Nc3nc(N4CCC(C(=O)N5CCN(CCC(=O)N6CCC(n7nc(N8CCCc9cc(-c%10cnn(C)c%10)c(C(F)F)cc98)c8c7CCN(C(=O)NC)C8)CC6)CC5)CC4)ncc3Cl)cc(OC)c2n(C)c1=O", "note": "[TCIP3]", "values": [{"measurement": "Annexin V-positive cells, times higher than DMSO", "setting": "SUDHL5 cells; SUDHL5, 10 nM, 72 hours", "value": 2.9, "unit": "times"}, {"measurement": "Annexin V-positive cells, times higher than NEG1", "setting": "SUDHL5 cells; SUDHL5, 10 nM, 72 hours", "value": 2.3, "unit": "times"}, {"measurement": "Annexin V-positive cells, times higher than NEG2", "setting": "SUDHL5 cells; SUDHL5, 10 nM, 72 hours", "value": 2.5, "unit": "times"}, {"measurement": "cells stained positive for Annexin V", "setting": "SUDHL5 cells; SUDHL5, 10 nM, 72 hours", "value": 82, "unit": "%"}, {"measurement": "induction of apoptosis", "setting": "SUDHL5 cells; SUDHL5, 24, 48, 72 hours", "value": "significant increases in Annexin V-positive cells began after 48 hours"}, {"measurement": "IC50", "setting": "SUDHL5", "value": 1.2, "unit": "nM"}]}]}
